Values of other authors in patent US12558353B2 (CELLTAXIS, LLC, priority 2018, dated 2026).
Where two headings read alike, the source gives them in different places.

Assays:
[1] = biological target: T1, BLT1 receptor (Homo sapiens, UniProt Q15722); settings: patients with stable CF lung disease, cited from earlier work
T1 construct: host or cells: human CF patients (endogenous receptor)

[2] = tested on: P. aeruginosa-infected mice; settings: doses of 0.3 to 100 mg/kg; cited from earlier work
[3] = tested on: patients with CF; settings: high doses, cited from earlier work

T1 sequence (Q15722 whole entry): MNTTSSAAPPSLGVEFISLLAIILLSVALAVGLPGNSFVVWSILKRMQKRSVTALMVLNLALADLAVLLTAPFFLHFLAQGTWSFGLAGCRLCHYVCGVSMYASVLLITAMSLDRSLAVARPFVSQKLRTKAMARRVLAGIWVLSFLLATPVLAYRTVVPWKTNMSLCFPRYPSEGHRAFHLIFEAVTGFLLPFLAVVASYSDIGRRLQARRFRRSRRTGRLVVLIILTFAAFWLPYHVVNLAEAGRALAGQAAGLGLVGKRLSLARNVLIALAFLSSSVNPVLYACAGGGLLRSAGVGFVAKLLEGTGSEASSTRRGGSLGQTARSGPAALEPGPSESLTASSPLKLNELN

SMILES | serious adverse events leading to early termination of the trial [1] | serious adverse events leading to early termination of the trial ([1]; listed as amelubant) | Mac-1 (CR3) expression [2] | number of neutrophils in the lungs and the airways [2] | survival ([3]; children with CF) | lung function decline [3]
CCOC(=O)NC(=N)c1ccc(OCc2cccc(COc3ccc(C(C)(C)c4ccc(O)cc4)cc3)c2)cc1 | increase in respiratory serious adverse events | increase in serious pulmonary AEs | significantly down-regulated | reduced the number of neutrophils | – | –
CC(C)Cc1ccc(C(C)C(=O)O)cc1 (stereo not drawn) [ibuprofen] | – | – | – | – | improves survival | slows lung function decline
